Laboratory results taken from US20250059264A1, “METHOD OF TREATING STROKE” (AlaMab Therapeutics, Inc., priority 2023, published 2025).

Columns and labels:
[1] = tested on: mouse model of stroke induced by middle cerebral artery occlusion (MCAO); test: Beam-walking test, time of treatment (Example 2); type: in vivo, ICR mice
Procedure: (§1) The administration of 10 mg/kg butylphthalide and 50 mg/kg ALMB-0166 was started 30 minutes, 2 hours, or 6 hours after the MCAO procedure of the mice. Ninety-six (96) ICR mice received behavioral training after adaptive feeding period and before the operation to establish stroke models. The behavioral training included beam-walking and rotarod test. The experimental mice were then randomly divided into 8 groups according to the values of the body weight, with 12 mice in each test group as described in Table 1. The mice were fasted overnight before modeling and were anesthetized with isoflurane. Right middle cerebral artery occlusion (MCAO) was induced in mice using the intraluminal filament technique to mimic focal cerebral ischemic stroke. After 1 hr, reperfusion was allowed by removing the occlusion. Administration of each treatment was performed 0.5 hrs, 2 hrs, or 6 hrs after the infarction. The neurological function score was evaluated at 24 hrs and 48 hrs after reperfusion, as was assessed by beam-walking, grip strength, and rotarod tests. At 48 hrs after reperfusion, the whole brain tissue of all rats was harvested to assess the cerebral infarct area by TTC staining, as well as to measure brain volume and brain water content, two indicators of acute cerebral edema.

[2] = tested on: mouse model of stroke induced by middle cerebral artery occlusion (MCAO); test: Grip strength, time of treatment (Example 2); type: in vivo, ICR mice
Procedure: as §1

[3] = tested on: mouse model of stroke induced by middle cerebral artery occlusion (MCAO); test: Cerebral infarct volume by TTC staining, time of treatment (Example 2); type: in vivo, ICR mice; details: 48 h after reperfusion; for Improvement rate of infarction: vs model
Procedure: as §1

[4] = tested on: mouse model of stroke induced by middle cerebral artery occlusion (MCAO); test: Brain volume, time of treatment (Example 2); type: in vivo, ICR mice; details: 48 h after reperfusion
Procedure: as §1

[5] = tested on: rat model of stroke induced by middle cerebral artery occlusion (MCAO); test: Beam-walking test (Example 3); type: in vivo, SD rats; details: 10 mg/kg (table label) i.v. Bid from 30 min after infarction
Procedure: (§2) The administration of the respective treatments was started 30 minutes after the MCAO procedure of the rats.
(§3) Seventy-two (72) SD rats received behavioral training after adaptive feeding period and before the operation to establish stroke models. The behavioral training included beam-walking, grip and rotarod tests. The experimental rats were then randomly divided into 6 groups according to the body weight, with 12 rats in each test group as described in Table 15.
(§4) The rats were fasted overnight before modeling and were anesthetized with isoflurane. Right middle cerebral artery occlusion (MCAO) was induced in each rat using the intraluminal filament technique to mimic focal cerebral ischemic stroke. After 2 hrs, reperfusion was allowed by removing the occlusion.
(§5) Administration of each treatment was performed 0.5 h after the infarction. The rats were scored by the Longa method at 24-hours post-procedure. The neurological function was evaluated at 24-hr and 48-hr after reperfusion, and was assessed by beam-walking, grip strength, and rotarod tests. At 48 h after reperfusion, the whole brain tissue of all rats was harvested to assess the cerebral infarct area by TTC staining, as well as to measure brain volume and brain water content, two indicators of acute cerebral edema.

[6] = tested on: rat model of stroke induced by middle cerebral artery occlusion (MCAO); test: Rotarod test (Example 3); type: in vivo, SD rats; details: 10 mg/kg (table label) i.v. Bid from 30 min after infarction
Procedure: as §2, §3, §4, §5

[7] = tested on: rat model of stroke induced by middle cerebral artery occlusion (MCAO); test: Brain water content (Example 3); type: in vivo, SD rats; details: 10 mg/kg (table label) i.v. Bid from 30 min after infarction; 48 h after reperfusion
Procedure: as §2, §3, §4, §5

[8] = tested on: rat model of stroke induced by middle cerebral artery occlusion (MCAO); test: Brain volume (Example 3); type: in vivo, SD rats; details: 10 mg/kg (table label) i.v. Bid from 30 min after infarction; 48 h after reperfusion
Procedure: as §2, §3, §4, §5

[9] = tested on: rat model of stroke induced by middle cerebral artery occlusion (MCAO); test: Rotarod test, dosing regimen (Example 4); type: in vivo, SD rats; details: 10 mg/kg (table label) i.v. Bid from 30 min after infarction
Procedure: The first administration of the respective treatments was started 30 minutes (Day 1 of study) after the MCAO procedure of the rats. For the butylphthalide group, subsequent doses were administered every day after for 14 days. For the ALMB-0166 test groups, a second dose of the antibody was administered at Day 4 post-stroke (Day 4 of the study). Thirty-six (36) SD rats received behavioral training after adaptive feeding period and before the operation to establish stroke models. The behavioral training included beam-walking, grip and rotarod tests. The experimental rats were then randomly divided into 6 groups according to the body weight, with 6 rats in each test group as described in Table 15. The rats were fasted overnight before modeling and were anesthetized with isoflurane. Right middle cerebral artery occlusion (MCAO) was induced in each rat using the intraluminal filament technique to mimic focal cerebral ischemic stroke. After 2 hrs, reperfusion was allowed by removing the occlusion. Administration of butylphthalide was performed 0.5 hrs after the infarction, and every day after the operation (14 days). Administration of ALMB-0166 and the vehicle treatment was performed at 0.5 hrs and at Day 4 after the operation. The body weight of rats was recorded before the operation (Day 0 of study) and on Days 2, 4, 7, and 11 after the procedure. The rats were scored by the Longa method at Day 1 (24-hours) post-procedure. The neurological function was evaluated at Days 1, 2, 4, 7, and 14 after the procedure, and was assessed by beam-walking, grip strength, and rotarod tests. At Day 14 after reperfusion, the whole brain tissue of all rats was harvested to assess the cerebral infarct area by TTC staining. The total infarct volume was determined, and the infarct volume ratio was calculated by dividing the total infarct volume by the whole brain volume. For calculating the infarct volume rate, the difference in infarct volume ratio between the model group and the corresponding administration group was divided by the infarct volume ratio of the model group.

[10] = tested on: rat model of stroke induced by middle cerebral artery occlusion (MCAO); test: Cerebral infarct volume by TTC staining, dosing regimen (Example 4); type: in vivo, SD rats; details: 10 mg/kg (table label) i.v. Bid from 30 min after infarction, 14-days post-operation
Procedure: The first administration of the respective treatments was started 30 minutes (Day 1 of study) after the MCAO procedure of the rats. For the butylphthalide group, subsequent doses were administered every day after for 14 days. For the ALMB-0166 test groups, a second dose of the antibody was administered at Day 4 post-stroke (Day 4 of the study). Thirty-six (36) SD rats received behavioral training after adaptive feeding period and before the operation to establish stroke models. The behavioral training included beam-walking, grip and rotarod tests. The experimental rats were then randomly divided into 6 groups according to the body weight, with 6 rats in each test group as described in Table 15. The rats were fasted overnight before modeling and were anesthetized with isoflurane. […] The body weight of rats was recorded before the operation (Day 0 of study) and on Days 2, 4, 7, and 11 after the procedure. The rats were scored by the Longa method at Day 1 (24-hours) post-procedure. The neurological function was evaluated at Days 1, 2, 4, 7, and 14 after the procedure, and was assessed by beam-walking, grip strength, and rotarod tests. […] The total infarct volume was determined, and the infarct volume ratio was calculated by dividing the total infarct volume by the whole brain volume. […]

[11] = 10 mg/kg i.v. once 0.5 hr after infarction, 24 h
[12] = 10 mg/kg i.v. once 0.5 hr after infarction, 48 h
[13] = 10 mg/kg i.v. once 2 hr after infarction, 24 h
[14] = 10 mg/kg i.v. once 2 hr after infarction, 48 h
[15] = 10 mg/kg i.v. once 6 hr after infarction, 24 h
[16] = 10 mg/kg i.v. once 6 hr after infarction, 48 h
[17] = 10 mg/kg i.v. once 0.5 hr after infarction
[18] = 10 mg/kg i.v. once 2 hr after infarction
[19] = 10 mg/kg i.v. once 6 hr after infarction

**Q.** Which Beam-walking time [1, 11] does the source give for `CCCCC1OC(=O)c2ccccc21` (centres unmarked) [Butylphthalide] here?
**A.** 57.69 ± 3.94 s

**Q.** And the Beam-walking time [1, 12]?
**A.** 51.37 ± 16.46 s

**Q.** What about the Beam-walking time [1, 13] of the same compound?
**A.** 53.12 ± 12.48 s

**Q.** What about the Beam-walking time [1, 14] of the same compound?
**A.** 52.73 ± 10.98 s

**Q.** What about the Beam-walking time [1, 15] of the same compound?
**A.** 10.32 s

**Q.** And the Beam-walking time [1, 16]?
**A.** 58.57 ± 3.23 s

**Q.** And the “Grip Strength” value [2, 11]?
**A.** 203.13 ± 35.30 g

**Q.** And the “Grip Strength” value [2, 12]?
**A.** 196.04 ± 41.72 g

**Q.** What about the “Grip Strength” value [2, 13] of the same compound?
**A.** 199.41 ± 38.48 g

**Q.** What about the “Grip Strength” value [2, 14] of the same compound?
**A.** 186.33 ± 44.64 g

**Q.** What about the “Grip Strength” value [2, 15] of the same compound?
**A.** 187.08 ± 53.81 g

**Q.** And the “Grip Strength” value [2, 16]?
**A.** 168.16 ± 66.94 g

**Q.** And the “Cerebral Infarction Volume” value [3, 17]?
**A.** 28.56%

**Q.** What about the “Improvement rate of infarction” value [3, 17] of the same compound?
**A.** 33.50%

**Q.** And the “Cerebral Infarction Volume” value [3, 18]?
**A.** 34.25%

**Q.** What about the “Improvement rate of infarction” value [3, 18] of the same compound?
**A.** 20.25%

**Q.** And the “Cerebral Infarction Volume” value [3, 19]?
**A.** 31.89%

**Q.** What about the “Improvement rate of infarction” value [3, 19] of the same compound?
**A.** 25.76%

**Q.** And the Brain volume [4, 17]?
**A.** 0.403 ± 0.04 mL

**Q.** What about the Brain volume [4, 18] of the same compound?
**A.** 0.407 ± 0.02 mL

**Q.** And the Brain volume [4, 19]?
**A.** 0.427 ± 0.03 mL

**Q.** And the Beam-walking time ([5]; 24 h)?
**A.** 38.91 s

**Q.** And the Beam-walking time ([5]; 48 h)?
**A.** 45.80 s

**Q.** And the “Rotarod test score, Time” value ([6]; 24 h)?
**A.** 69.83 s

**Q.** And the “Rotarod test score, Time” value ([6]; 48 h)?
**A.** 86.42 s

**Q.** And the Brain water content [7]?
**A.** 1282.00 mg

**Q.** What about the Brain water ratio [7] of the same compound?
**A.** 78.80%

**Q.** And the Brain volume [8]?
**A.** 1.597 ± 0.11 mL

**Q.** What about the “Rotarod test score, Time” value ([9]; Day 0) of the same compound?
**A.** 124.5 s

**Q.** And the “Rotarod test score, Time” value ([9]; Day 2)?
**A.** 126.8 s

**Q.** What about the “Rotarod test score, Time” value ([9]; Day 4) of the same compound?
**A.** 122.2 s

**Q.** What about the “Rotarod test score, Time” value ([9]; Day 7) of the same compound?
**A.** 130.7 s

**Q.** What about the “Rotarod test score, Time” value ([9]; Day 14) of the same compound?
**A.** 157.3 s

**Q.** And the “Cerebral Infarction Volume” value [10]?
**A.** 15.01%

**Q.** And the “Improvement rate of infarction” value ([10]; vs model)?
**A.** 23.64%
